From EP0555116B1, “Compositions based on antiseptics and their applications” (HUTCHINSON, priority 1992, dated 1993)

System: S. aureus ATCC 6538
Assay: Growth inhibition test (DGHM, Essai 2, Tables A-C), 72 h at 37°C; non/A/B/C = without or with inactivating substances A, B, C
Assay type: cell-based, Staphylococcus aureus
Conditions: for concentration en substance active inhibant la croissance: antiseptique seul
Description: Un autre essai a été réalisé à partir des solutions suivantes : • 100 ml d'une solution à 0,1 % de digluconate de chlorhexidine (pH 6) et • 100 ml d'une solution à 0,1 % de Bardac 22®.
L'activité de ces solutions, seules ou en combinaison a été plus particulièrement testée vis-à-vis de Staphylococcus aureus ATCC 6538, Escherichia coli ATCC 11229 et Candida albicans ATCC 10231.
Les tests ont été réalisés conformément au protocole décrit dans le Chapitre I/2.1 et 2.2 de Richtlinien für die Prüfung und Bewertung chemischer Desinfektionsverfahren der DGHM, Stand 1.1., 1981).
Les Tableaux A, B et C illustrent respectivement l'activité bactéricide et fongicide d'une solution aqueuse à 0,1 % de digluconate de chlorhexidine, d'une solution aqueuse à 0,1 % de Bardac 22® et d'un mélange à part égale des deux composés. Les protocoles dont ces Tableaux illustrent les résultats comprennent une incubation de 72 heures à 37°C et l'utilisation, comme témoins, des substances inactivantes suivantes : A : Tween® 80 3 % + lécithine 0,3 % + cystéine 0,1 %; B : Tween® 80 3 % + saponine 3 % + cystéine 0,1 % + histidine 0,1 %; C : Tween® 80 3 % + lécithine 0,3 % + histidine 0,1 % + thiosulfate de sodium 0,5 %.
Dans ces Tableaux, le signe "+" indique une croissance et le signe "-" l'absence de croissance.

Structure (SMILES) | croissance (Conc. 0,1 % (vol/vol), A) | croissance (Conc. 0,1 % (vol/vol), B) | croissance (Conc. 0,1 % (vol/vol), C) | croissance (Conc. 0,1 % (vol/vol), non) | croissance (Conc. 0,05 % (vol/vol), A) | croissance (Conc. 0,5 % (vol/vol), A) | croissance (Conc. 0,05 % (vol/vol), B) | croissance (Conc. 0,5 % (vol/vol), B) | croissance (Conc. 0,05 % (vol/vol), C) | croissance (Conc. 0,5 % (vol/vol), C) | croissance (Conc. 0,05 % (vol/vol), non) | croissance (Conc. 0,5 % (vol/vol), non) | croissance (Conc. 1,0 % (vol/vol), A) | croissance (Conc. 1,0 % (vol/vol), B) | croissance (Conc. 1,0 % (vol/vol), C) | croissance (Conc. 1,0 % (vol/vol), non) | croissance (Conc. 0,00625 % (vol/vol), A) | croissance (Conc. 0,00625 % (vol/vol), B) | croissance (Conc. 0,00625 % (vol/vol), C) | croissance (Conc. 0,00625 % (vol/vol), non) | further results
CCCCCCCCCC[N+](C)(C)CCCCCCCCCC [Bardac®, chlorure de didécyldiméthylammonium] | + | + | + | - | + | + | + | + | + | + | + | - | + | + | + | - | + | + | + | + | croissance (Conc. 0,0125 % (vol/vol), A): +; croissance (Conc. 0,0125 % (vol/vol), B): +; croissance (Conc. 0,0125 % (vol/vol), C): +; croissance (Conc. 0,0125 % (vol/vol), non): +; croissance (Conc. 0,025 % (vol/vol), A): +; croissance (Conc. 0,025 % (vol/vol), B): +; croissance (Conc. 0,025 % (vol/vol), C): +; croissance (Conc. 0,025 % (vol/vol), non): +; concentration en substance active inhibant la croissance: 0,0001%
[H]/N=C(\N/C(=N/[H])NCCCCCCNC(=N)NC(=N)Nc1ccc(Cl)cc1)Nc1ccc(Cl)cc1 [Chlorhexidine, digluconate de chlorhexidine, reference compound] | + | + | + | + | + | + | + | + | + | + | + | - | + | + | + | - | + | + | + | + | croissance (Conc. 0,0125 % (vol/vol), A): +; croissance (Conc. 0,0125 % (vol/vol), B): +; croissance (Conc. 0,0125 % (vol/vol), C): +; croissance (Conc. 0,0125 % (vol/vol), non): +; croissance (Conc. 0,025 % (vol/vol), A): +; croissance (Conc. 0,025 % (vol/vol), B): +; croissance (Conc. 0,025 % (vol/vol), C): +; croissance (Conc. 0,025 % (vol/vol), non): +; concentration en substance active inhibant la croissance: 0,0005%
